Key:
[1] = system: bovine pulmonary artery endothelial cells (BPAEC); test: Endothelial cell apoptosis (morphology, Hoechst staining, DNA fragmentation); type: cell-based
Method: [Bovine pulmonary artery endothelial cells were incubated with various concentrations of TNF-gamma for 48 hours. The apoptosis was assessed by nuclear staining with Hoechst 33342 fluorescence dye (10 mg/ml).] […] [U937 cells were transfected using lipofectamine (following manufacturer's instruction) with 0.2 mg of reporter plasmid (NF-kappaB-SEAP). The transfected U937 cells were collected and added to the 96-well plate ([…]/well) with various concentrated of TNF-gamma. After Incubation at 37° C. for 72 hr, the NF-kappaB activity was measured with luminometer at absorbance of 450 nm.]
Bovine pulmonary artery endothelia cells (BPAEC) were incubated with various concentrations of TNF-gamma for 48 hours. Apoptosis was assessed morphologically and by nuclear staining with Hoechst 33342 fluorescence dye (10 mg/ml) in triplicate. Live and apoptotic cells were scored in four random fields, about 1,000 cells were counted. The DNA fragmentation was analyzed as described previously.
BPAEC were obtained from the American Type Culture Collection (Rockville, Md., USA). The cells were grown in DMEM supplemented with 10% heat-inactivated FCS in a humidified environment of 5% CO2/[…] at 37° C. as previously described (Yue, T. L., et al., Mol. Pharmacol. 51:951-962 (1997)). Cells at a subconfluent density were used. Before experiments, the medium was changed to DMEM contained 2% FCS. BPAEC from passages 17-20 were used in all studies.
To quantify cells undergoing apoptosis, cell monolayers were fixed and stained with Hoechst […] (Molecular probe, Eugene, Oreg., USA) as described previously (Yue, T. L., et al., Mol. Pharmacol. 51:951-962 (1997)). The morphological features of apoptosis (cell shrinkage, chromatin condensation, blebbing, and fragmentation) were monitored by fluorescence microscopy. Transmission electron microscopy study was done as reported previously (Yue, T. L., et al., Mol. Pharmacol. 51:951-962 (1997)).
DNA ladder: Cells treated with vehicle or TNF-gamma-alpha were lysed in lysis buffer containing 100 mM NaCl, 10 mM Tris-HCl, pH 8.0, 2.5 mM EEDTA, 0.5% SDS, and 100 micrograms/ml […]. The lysates were incubated at 55° C. for 16 h. After incubation, the lysates were gently extracted three times with pheno/chloroform/isoamyl alcohol, precipitated in ethanol, treated with DNAse-free RNAse, re-extracted, and precipitated again as described previously. DNA electrophoresis was carried out in 1.8% agarose gels containing ethidium bromide, and DNA fragmentations were visualized under ultraviolet light.
In situ end-labeling (TUNEL): BPAEC were cultured in two-chamber slides (Nunc) and treated with TNF-gamma-alpha for 8 to 24 h. In situ detection of apoptotic cells was performed by using terminal deoxyribonucleotide transferase-mediated dUTP nick end labeling with an ApopTag in situ apoptosis detection kit (Oncor) following the manufacturer's recommendation.
The cells were plated in two-chamber slides. The cells were cotransfected with 0.5 μg/ml of Pegfp-c-1 (Clontech; Li, Y. and Horwitz, M. S. Biotechnology 23:1026-1028) as a fluorescent marker of transfected cells together with 1 μg/ml of either the empty cloning vector pcDNA1 (control) or the dominant-interfering c-Jun mutant pcDNA1-FlagΔ169 (Xia, Z., et al., Science 270:1326-1331 (1995)) using Calphos Maximizer Transfection Kit (Clontech) according to the manufacturer's recommendation. Following transfection, the cells were allowed to recover in complete medium for 24 h. The cells were treated with TNF-gamma-alpha and the number of apoptotic cells was assessed by nuclear staining after fixation as described in Methods.

[2] = system: bFGF-induced corneal neovascularization; test: Corneal angiogenic assay; type: in vivo, rat
Source text: Basic FGF (“bFGF”) has been tested in this corneal angiogenic assay in various research laboratories for a variety of purposes. It has been shown that bFGF can induce significant angiogenesis in corneas (e.g., in rabbits, rats and mice). Based on the previous studies, bFGF was used in our study of TNF-gamma as an angiogenic factor to induce the growth of blood vessels in rat corneas.
An incision, 1-1.5 mm in length, is made in the center of the cornea with a microsurgery scalpel blade.
Starting at the incision, a micropocket is created between the collagenous layers of the corneal stroma with a Castroviego cyclodialysis spatula. This pocket extends to a point 1-2 mm from the capillary bed at the corneal-scleral limbus.
bFGF, which is incorporated 1:1 into non-inflammatory Hydron polymer (available from Interferon Sciences, New Brunswick, N.J.), is implanted into the pocket.
Five or seven days after corneal implantation, corneal blood perfusion with colloidal carbon is performed. Corneas are then harvested, fixed, flattened, mounted and photographed for morphology.
An image analysis system (IPLab) is used to quantify the corneal angiogenesis. The corneal surface area, which is covered by the new blood vessels, is quantified and used in our current study. After corneal implantation surgery, TNF-gamma, angiostatin or PBS in a volume of 25 microliters was injected into the conjunctival region adjacent to the implantation site. Based on molarities of TNF-gamma and angiostatin, 10 micrograms of TNF-gamma or 5 micrograms of angiostatin were given respectively four times, once a day, during the first four days post-surgery. TNF-gamma and angiostatin were prepared in PBS.
bFGF was used to induce neovascularization of the cornea from preexisting pericorneal limbal vessels in two different versions of the assay. First, corneas were surgically implanted with hydrogel plugs containing bFGF. […] In a separate study using an alternate version of this assay, both bFGF and treatment protein were co-administered on a nitrocellulose filter disk implanted within the rat corneal stroma. […] In both assays, the surface area of the angiogenic response was quantitated from digital images of treated corneas five days following implantation.

[3] = target: T1, recombinant, untagged TNF-gamma-beta protein (aa 72-251) (human, UniProt O95150 72-251); test: BIAcore 3000, DR3-Fc immobilised on CM5 chip, TNF-gamma-beta in flow, 1:1 model, three batches
T1 construct: they are put here; also called TL1β; non-tagged TNF-gamma-beta
T1 sequence: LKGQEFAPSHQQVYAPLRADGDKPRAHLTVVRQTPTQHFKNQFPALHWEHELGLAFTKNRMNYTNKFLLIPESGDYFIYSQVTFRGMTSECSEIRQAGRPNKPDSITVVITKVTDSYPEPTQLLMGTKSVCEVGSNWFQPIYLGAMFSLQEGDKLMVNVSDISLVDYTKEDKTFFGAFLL
Method: TNFR-Fc were covalently immobilized to the BIAcore sensor chip (CM5 chip) via amine groups using N-ethyl-N′-(dimethylaminopropyl) carbodiimide/N-hydroxysuccinimide chemistry. […] The amount of bound protein was determined during washing of the flow cell with HBS buffer (10 mM HEPES, pH 7.4, 150 mM NaCl, 3.4 mM EDTA, 0.005% Surfactant P20). The flow cell surface was regenerated by displacing bound protein by washing with 20 microliters of 10 mM glycine-HCl, pH 2.3. For kinetic analysis, the on and off rates were determined using the kinetic evaluation program in BIAevaluation 3 software using a 1:1 binding model and the global analysis method.

TNF-gamma-beta = target: T2, TNF-gamma-beta (Homo sapiens, UniProt O95150); test: FACS binding of receptor-Fc proteins to cells expressing full length TNF-gamma-beta
T2 construct: expressed in transfected cells
T2 sequence (O95150 1-251): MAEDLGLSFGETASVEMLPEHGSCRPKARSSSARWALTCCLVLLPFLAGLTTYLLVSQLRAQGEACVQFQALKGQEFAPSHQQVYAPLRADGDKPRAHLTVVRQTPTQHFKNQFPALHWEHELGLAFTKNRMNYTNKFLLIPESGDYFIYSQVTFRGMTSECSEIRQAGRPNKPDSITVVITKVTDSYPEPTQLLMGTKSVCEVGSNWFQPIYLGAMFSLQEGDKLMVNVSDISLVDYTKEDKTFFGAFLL
Method: These cells were used to screen the Fc-fusion form of the extracellular domain of TNFR family members, including TNFR1, Fas, HveA, DR3, DR4, DR5, DR6, DcR1, DcR2, TR6, OPG, RANK, AITR, TAC1, CD40, and OX40. […] TR6 has been previously described as a decoy receptor (Pitti et al., Nature 396:699-703 (1998); Yu et al., J. Biol. Chem. 274:13733-6 (1999)) capable of competing with Fas and HveA for binding of FasL and LIGHT, respectively.
Cells resistant to 0.5 mg/ml Genticin (Invitrogen) were selected and expanded. Expression of TNF-gamma-beta mRNA was confirmed by quantitative RT-PCR analysis and surface expression of TNF-gamma-beta protein confirmed by FACS analyses using TNF-gamma-beta monoclonal antibodies.
One million cells, in 0.1 ml of FACS buffer (PBS, 0.1% BSA, 0.1% NaN3), were incubated with 0.1-1 microgram of protein or antibody at RT for 15 min. The cells were washed with 3 ml of FACS buffer, reacted with biotinylated primary antibody, and stained with PE-conjugated secondary antibody at RT for 15 min. Cells were then washed again, resuspended in 0.5 microgram/ml of propidium iodide, and live cells were gated and analyzed on a FACScan using the CellQuest software (BD Biosciences).

C[S+]([O-])c1ccc(-c2nc(-c3ccncc3)c(-c3ccc(F)cc3)[nH]2)cc1 (stereo not drawn) [SB203580, reference compound]
reduction of TNF-gamma-alpha-induced BPAEC apoptosis ([1]; 3 μM): 33%
reduction of TNF-gamma-alpha-induced BPAEC apoptosis ([1]; 10 μM): 51%

ZVAD-fmk [reference compound]
effect of caspase inhibitor on TNF-gamma-alpha-induced BPAEC apoptosis ([1]; added 1 h prior to TNF-gamma-alpha, Ac-YYAD-CHO up to 100 μM): attenuated

angiostatin
angiogenic process in bFGF-implanted corneas ([2]; bFGF (300 ng) implant, conjunctival injection once a day for four days, 10 micrograms TNF-gamma or 5 micrograms angiostatin, seven days after surgery, vs PBS): significantly slowed down the angiogenic process
maximal decrease in rat corneal neovascularization induced by bFGF ([2]; comparison of TNF-gamma-beta and angiostatin): similar
vessel growth in PBS-implanted corneas ([2]; multiple conjunctival injections): no obvious vessel growth

B1: DR3-Fc (extracellular domain of human DR3, aa 1-199, fused to the Fc domain of human IgG1) (Fc fusion, UniProt Q93038 25-199, looked up)
chain: QGGTRSPRCDCAGDFHKKIGLFCCRGCPAGHYLKAPCTEPCGNSTCLVCPQDTFLAWENHHNSECARCQACDEQASQVALENCSAVADTRCGCKPGWFVECQVSQCVSSSPFYCQPCLDCGALHRHTRLLCSRRDTDCGTCLPGFYEHGDGCVSCPTSTLGSCPERCAAVCGWRQ
notes: range 1-199; not shown: Fc domain of human IgG1, fused in-frame to the C-terminus of the receptor part
Kd [3]: 6.45 nM
kon [3]: 639000 M⁻¹ s⁻¹

B2: sTNFR1: Mouse soluble TNF receptor 1 from R&D Systems (protein, UniProt P25118 30-212, looked up)
extracellular domain: LVPSLGDREKRDSLCPQGKYVHSKNNSICCTKCHKGTYLVSDCPSPGRDTVCRECEKGTFTASQNYLRQCLSCKTCRKEMSQVEISPCQADKDTVCGCKENQFQRYLSETHFQCVDCSPCFNGTVTIPCKETQNTVCNCHAGFFLRESECVPCSHCKKNEECMKLCLPPPLANVTNPQDSGTA
modifications: extracellular domain
notes: Mouse soluble TNF receptor 1 from R&D Systems
effect on TNF-gamma-alpha-induced apoptosis ([1]; BPAEC): Neither sTNFR1 nor sTNFR2 showed effect
effect on TNFa-induced apoptosis ([1]; BPAEC, same condition): reduced by sTNFR1 significantly

B3: TR6: non-tagged TNFR-6 alpha (DcR3) decoy receptor protein (protein)
chain: VAETPTYPWRDAETGERLVCAQCPPGTFVQRPCRRDSPTTCGPCPPRHYTQFWNYLERCRYCNVLCGEREEEARACHATHNRACRCRTGFFAHAGFCLEHASCPPGAGVIAPGTPSQNTQCQPCPPGTFSASSSSSEQCQPHRNCTALGLALNVPGSSSHDTLCTSCTGFPLSTRVPGAEECERAVIDFVAFQDISIKRLQRLLQALEAPEGWGPTPRAGRAALQLKLRRRLTELLGAQDGALLVRLLQALRVARMPGLERSVRERFLPVH
competition with DR3-Fc for binding to TNF-gamma-beta expressing cells (TNF-gamma-beta; 2:1 molar ratio of non-tagged TR6 and DR3-Fc): no binding of DR3-Fc was detected

B4: HveA-Fc: extracellular domain of HveA (aa 1-192) fused to Fc of human IgG1 (protein)
chain: LPSCKEDEYPVGSECCPKCSPGYRVKEACGELTGTVCEPCPPGTYIAHLNGLSKCLQCQMCDPAMGLRASRNCSRTENAVCGCSPGHFCIVQDGDHCAACRAYATSSPGQRVQKGGTESQDTLCQNCPPGTFSPNGTLEECQHQTKCSWLVTKA
modifications: left off: a dimerising Fc or GST
notes: extracellular domain of HveA (aa 1-192) fused to Fc of human IgG1
binding to cells expressing TNF-gamma-beta (FACS) (TNF-gamma-beta): did not bind

From patent publication US20030129189A1, “Tumor necrosis factor-gamma” (priority 1994, published 2003)
